Among the data in US20020103398A1, “2-Amino-2-alky-4 heptenoic and heptynoic acid derivatives useful as nitric oxide synthase inhibitors” (priority 2000, published 2002) are IC50 values, retold here.

Common to all, as to assay type: biochemical
In assay [1] the target is T1, Human inducible NOS (hiNOS) (Homo sapiens, UniProt P35228).
T1 construct: made in house; host or cells: Sf9 insect cells, baculovirus vector
The experiment in a line: Citrulline assay for nitric oxide synthase (hiNOS). The conditions noted are these: recombinant enzyme from Sf9 cells; 30 μM L-arginine; 37° C., 15 minutes. The text has this: (§1) Nitric oxide synthase (NOS) activity can be measured by monitoring the conversion of L-[2,3-^3H]-arginine to L-[2,3-^3H]-citrulline (Bredt and Snyder, Proc. Natl. Acad. Sci. U.S.A., 87, 682-685, 1990 and Moore et al, J. Med. Chem. 39, 669-672, 1996). Human inducible NOS (hiNOS), human endothelial constitutive NOS (hecNOS) and human neuronal constitutive NOS (hncNOS) are each cloned from RNA extracted from human tissue. The cDNA for human inducible NOS (hiNOS) is isolated from a λcDNA library made from RNA extracted from a colon sample from a patient with ulcerative colitis. The cDNA for human endothelial constitutive NOS (hecNOS) is isolated from a λcDNA library made from RNA extracted from human umbilical vein endothelial cells (HUVEC) and the cDNA for human neuronal constitutive NOS (hncNOS) is isolated from a λcDNA library made from RNA extracted from human cerebellum obtained from a cadaver. […] After mixing the resin is allowed to settle and L-[2,3-^3H]-Citrulline formation is determined by counting aliquots of the supernatant with a liquid scintillation counter. IC50 values can be determined by testing each compound at several concentrations. […]

Assay [2] deals with T2, human endothelial constitutive NOS (hecNOS) (Homo sapiens, UniProt P29474).
T2 construct: made in house; host or cells: Sf9 insect cells, baculovirus vector
The experiment in a line: Citrulline assay for nitric oxide synthase (hecNOS). The conditions noted are these: recombinant enzyme from Sf9 cells; 30 μM L-arginine; calmodulin 40-100 nM; 37° C., 15 minutes.
Excerpt: as §1

Assay [3] addresses T3, human neuronal constitutive NOS (hncNOS) (Homo sapiens, UniProt P29475).
T3 construct: made in house; host or cells: Sf9 insect cells, baculovirus vector
Briefly: Citrulline assay for nitric oxide synthase (hncNOS). The conditions noted are these: recombinant enzyme from Sf9 cells; 30 μM L-arginine; calmodulin 40-100 nM; 37° C., 15 minutes.
Excerpt: as §1

Structures can show the parent of a compound that is named as a salt.

T1 sequence (P35228 whole entry): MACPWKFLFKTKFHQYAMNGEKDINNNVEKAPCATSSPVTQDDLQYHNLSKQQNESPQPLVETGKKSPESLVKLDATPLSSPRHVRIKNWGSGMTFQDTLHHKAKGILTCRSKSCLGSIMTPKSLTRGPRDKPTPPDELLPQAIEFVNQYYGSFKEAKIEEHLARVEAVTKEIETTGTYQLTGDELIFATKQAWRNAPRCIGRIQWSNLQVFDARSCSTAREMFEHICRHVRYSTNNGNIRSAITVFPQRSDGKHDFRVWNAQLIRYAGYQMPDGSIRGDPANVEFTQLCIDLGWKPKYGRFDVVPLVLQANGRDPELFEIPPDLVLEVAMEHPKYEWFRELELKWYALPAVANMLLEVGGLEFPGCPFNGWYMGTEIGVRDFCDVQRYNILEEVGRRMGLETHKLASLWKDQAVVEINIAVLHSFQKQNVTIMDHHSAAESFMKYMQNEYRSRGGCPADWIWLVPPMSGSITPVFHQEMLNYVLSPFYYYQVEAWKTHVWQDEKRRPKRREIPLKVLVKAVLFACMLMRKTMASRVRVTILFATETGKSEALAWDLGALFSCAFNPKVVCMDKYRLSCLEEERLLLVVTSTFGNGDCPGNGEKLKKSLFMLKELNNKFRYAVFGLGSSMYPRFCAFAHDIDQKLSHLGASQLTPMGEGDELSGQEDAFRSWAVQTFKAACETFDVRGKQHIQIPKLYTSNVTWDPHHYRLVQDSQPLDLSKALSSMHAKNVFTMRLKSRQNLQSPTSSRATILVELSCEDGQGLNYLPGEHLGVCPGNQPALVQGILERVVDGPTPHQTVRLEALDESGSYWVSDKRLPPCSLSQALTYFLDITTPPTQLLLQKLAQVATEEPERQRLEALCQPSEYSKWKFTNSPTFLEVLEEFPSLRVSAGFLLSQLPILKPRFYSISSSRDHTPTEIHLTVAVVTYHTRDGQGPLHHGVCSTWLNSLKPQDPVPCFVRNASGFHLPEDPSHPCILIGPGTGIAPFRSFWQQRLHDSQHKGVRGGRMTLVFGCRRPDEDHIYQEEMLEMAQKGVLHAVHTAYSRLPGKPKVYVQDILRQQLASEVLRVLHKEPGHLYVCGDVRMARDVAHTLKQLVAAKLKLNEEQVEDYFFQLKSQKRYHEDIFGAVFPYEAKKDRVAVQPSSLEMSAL
T3 sequence (P29475 whole entry): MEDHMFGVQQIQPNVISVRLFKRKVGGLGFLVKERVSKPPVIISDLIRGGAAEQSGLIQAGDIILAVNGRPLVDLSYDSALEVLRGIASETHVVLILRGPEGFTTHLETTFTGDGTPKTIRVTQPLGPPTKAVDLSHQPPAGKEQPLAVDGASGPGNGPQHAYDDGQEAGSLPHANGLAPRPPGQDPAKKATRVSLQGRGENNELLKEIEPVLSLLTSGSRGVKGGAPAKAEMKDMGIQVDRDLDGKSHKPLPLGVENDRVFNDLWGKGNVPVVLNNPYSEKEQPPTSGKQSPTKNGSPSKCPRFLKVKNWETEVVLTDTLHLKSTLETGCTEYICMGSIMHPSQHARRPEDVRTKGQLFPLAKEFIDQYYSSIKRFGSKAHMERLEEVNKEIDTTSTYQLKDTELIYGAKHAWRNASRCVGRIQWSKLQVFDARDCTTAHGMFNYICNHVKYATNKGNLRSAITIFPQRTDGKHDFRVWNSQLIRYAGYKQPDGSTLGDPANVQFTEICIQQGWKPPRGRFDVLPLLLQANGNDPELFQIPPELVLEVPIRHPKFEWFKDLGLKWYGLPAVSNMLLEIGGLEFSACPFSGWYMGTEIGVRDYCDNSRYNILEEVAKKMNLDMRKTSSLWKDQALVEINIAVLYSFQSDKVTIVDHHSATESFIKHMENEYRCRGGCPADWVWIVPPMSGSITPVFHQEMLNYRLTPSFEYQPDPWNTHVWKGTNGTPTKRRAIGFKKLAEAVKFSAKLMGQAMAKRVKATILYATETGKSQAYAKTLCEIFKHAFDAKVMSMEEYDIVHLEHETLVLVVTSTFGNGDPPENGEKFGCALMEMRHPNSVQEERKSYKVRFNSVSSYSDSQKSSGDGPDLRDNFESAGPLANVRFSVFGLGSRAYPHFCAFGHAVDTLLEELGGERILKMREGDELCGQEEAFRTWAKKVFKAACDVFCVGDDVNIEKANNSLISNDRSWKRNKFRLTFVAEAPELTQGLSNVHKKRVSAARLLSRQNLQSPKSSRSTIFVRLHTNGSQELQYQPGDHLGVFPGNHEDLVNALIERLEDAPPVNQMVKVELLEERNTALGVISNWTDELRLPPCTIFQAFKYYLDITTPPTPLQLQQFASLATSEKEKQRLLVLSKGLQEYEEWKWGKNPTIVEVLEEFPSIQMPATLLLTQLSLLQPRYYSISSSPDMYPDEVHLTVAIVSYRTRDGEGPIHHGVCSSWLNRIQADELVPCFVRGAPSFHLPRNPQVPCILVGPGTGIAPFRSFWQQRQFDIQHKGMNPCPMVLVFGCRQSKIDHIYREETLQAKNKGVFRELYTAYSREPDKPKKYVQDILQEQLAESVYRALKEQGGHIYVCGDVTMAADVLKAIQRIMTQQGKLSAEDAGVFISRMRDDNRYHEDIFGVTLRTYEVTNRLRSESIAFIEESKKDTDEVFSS
T2 sequence (P29474 2-1203): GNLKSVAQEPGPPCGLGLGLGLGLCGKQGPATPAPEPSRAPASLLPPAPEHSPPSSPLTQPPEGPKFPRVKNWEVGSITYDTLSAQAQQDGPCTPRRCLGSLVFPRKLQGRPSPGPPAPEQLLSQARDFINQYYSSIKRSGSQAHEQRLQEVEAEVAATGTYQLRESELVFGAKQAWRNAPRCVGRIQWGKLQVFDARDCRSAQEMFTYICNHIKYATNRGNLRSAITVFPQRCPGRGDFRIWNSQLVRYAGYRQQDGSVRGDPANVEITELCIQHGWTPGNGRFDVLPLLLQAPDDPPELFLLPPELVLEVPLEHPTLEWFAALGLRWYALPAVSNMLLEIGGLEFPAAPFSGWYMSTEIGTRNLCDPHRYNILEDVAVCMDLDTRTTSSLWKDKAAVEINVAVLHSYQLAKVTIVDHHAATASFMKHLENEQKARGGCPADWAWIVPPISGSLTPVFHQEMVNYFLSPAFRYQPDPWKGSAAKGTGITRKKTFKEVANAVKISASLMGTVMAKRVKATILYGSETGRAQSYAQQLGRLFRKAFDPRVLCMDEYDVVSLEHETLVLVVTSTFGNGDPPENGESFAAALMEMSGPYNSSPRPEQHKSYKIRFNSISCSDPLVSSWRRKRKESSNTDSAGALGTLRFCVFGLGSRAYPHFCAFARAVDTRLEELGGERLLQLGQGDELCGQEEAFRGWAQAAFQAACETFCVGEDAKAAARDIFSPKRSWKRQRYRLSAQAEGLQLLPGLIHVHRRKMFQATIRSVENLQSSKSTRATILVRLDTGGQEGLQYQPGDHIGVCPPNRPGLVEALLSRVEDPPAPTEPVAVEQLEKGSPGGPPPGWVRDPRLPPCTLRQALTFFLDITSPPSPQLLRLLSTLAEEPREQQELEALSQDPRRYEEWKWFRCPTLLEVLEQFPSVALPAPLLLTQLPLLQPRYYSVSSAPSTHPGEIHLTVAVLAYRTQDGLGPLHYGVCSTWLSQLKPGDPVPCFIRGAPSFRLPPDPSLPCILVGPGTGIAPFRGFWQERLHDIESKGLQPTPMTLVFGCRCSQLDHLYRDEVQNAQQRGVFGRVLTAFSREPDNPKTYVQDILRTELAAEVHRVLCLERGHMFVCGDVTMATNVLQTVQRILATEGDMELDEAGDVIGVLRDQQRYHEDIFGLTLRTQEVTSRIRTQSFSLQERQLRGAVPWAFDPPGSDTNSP

`CC(=N)NCC/C=C\CC(C)(N)C(=O)O` (racemic) [Example 1, (2R/S,4Z)-2-amino-2-methyl-7-[(1-iminoethyl)amino]-4-heptenoic Acid, Dihydrochloride]: the IC50 (commonly the concentration needed to halve the response being measured) was 34 µM in assay [1], 386 µM in assay [2] and 122 µM in assay [3].
